In PubChem BioAssay (NCI):
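Briefly, cells in 96-well plates were exposed to five compound concentrations for 48 h, and endpoints were estimated by linear interpolation. At the GI50, growth is halved. TGI denotes the concentration required for complete inhibition of growth.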

Key:
Test in all cases: NCI tumour cell line growth inhibition, 48 h
786-0 renal = system: 786-0 renal
A498 renal = system: A498 renal
A549 NSCLC = system: A549 NSCLC
ACHN renal = system: ACHN renal
BT-549 breast = system: BT-549 breast
CAKI-1 renal = system: CAKI-1 renal
CCRF-CEM leukemia = system: CCRF-CEM leukemia
DU-145 prostate = system: DU-145 prostate
EKVX NSCLC = system: EKVX NSCLC
HCT-116 colon = system: HCT-116 colon
HCT-15 colon = system: HCT-15 colon
HL-60(TB) leukemia = system: HL-60(TB) leukemia
HOP-62 NSCLC = system: HOP-62 NSCLC
HOP-92 NSCLC = system: HOP-92 NSCLC
HS 578T breast = system: HS 578T breast
HT29 colon = system: HT29 colon
IGROV1 ovarian = system: IGROV1 ovarian
K-562 leukemia = system: K-562 leukemia
KM12 colon = system: KM12 colon
LOX IMVI melanoma = system: LOX IMVI melanoma
M14 melanoma = system: M14 melanoma
MALME-3M melanoma = system: MALME-3M melanoma
MCF7 breast = system: MCF7 breast
MDA-MB-231 breast = system: MDA-MB-231 breast
MDA-MB-435 = system: MDA-MB-435
MOLT-4 leukemia = system: MOLT-4 leukemia
NCI-H226 lung = system: NCI-H226 lung
NCI-H23 lung = system: NCI-H23 lung
NCI-H460 lung = system: NCI-H460 lung
NCI-H522 lung = system: NCI-H522 lung
NCI/ADR-RES ovarian = system: NCI/ADR-RES ovarian
OVCAR-3 ovarian = system: OVCAR-3 ovarian
OVCAR-5 ovarian = system: OVCAR-5 ovarian
OVCAR-8 ovarian = system: OVCAR-8 ovarian
PC-3 prostate = system: PC-3 prostate
RPMI-8226 leukemia = system: RPMI-8226 leukemia
RXF 393 renal = system: RXF 393 renal
SF-268 CNS = system: SF-268 CNS
SF-295 CNS = system: SF-295 CNS
SF-539 CNS = system: SF-539 CNS
SK-MEL-2 melanoma = system: SK-MEL-2 melanoma
SK-MEL-28 melanoma = system: SK-MEL-28 melanoma
SK-MEL-5 melanoma = system: SK-MEL-5 melanoma
SK-OV-3 ovarian = system: SK-OV-3 ovarian
SN12C renal = system: SN12C renal
SNB-19 CNS = system: SNB-19 CNS
SNB-75 CNS = system: SNB-75 CNS
SR leukemia = system: SR leukemia
TK-10 renal = system: TK-10 renal
U251 CNS = system: U251 CNS
UACC-257 melanoma = system: UACC-257 melanoma
UACC-62 melanoma = system: UACC-62 melanoma
UO-31 renal = system: UO-31 renal

SMILES: Cc1sc2c(c1C)C(c1ccc(Cl)cc1)=N[C@@H](CC(=O)NCCCCCNC(=O)COc1ccc(C3CCC(=O)NC3=O)cc1)c1nnc(C)n1-2 (some centres undefined)
- GI50 (786-0 renal): 2080 nM
- TGI (786-0 renal): > 100000 nM
- GI50 (A498 renal): 6270 nM
- TGI (A498 renal): > 100000 nM
- GI50 (A549 NSCLC): 3960 nM
- TGI (A549 NSCLC): > 100000 nM
- GI50 (ACHN renal): 20700 nM
- TGI (ACHN renal): > 100000 nM
- GI50 (BT-549 breast): 54.7 nM
- TGI (BT-549 breast): 541 nM
- GI50 (CAKI-1 renal): 845 nM
- TGI (CAKI-1 renal): > 100000 nM
- GI50 (CCRF-CEM leukemia): 51.9 nM
- TGI (CCRF-CEM leukemia): > 100000 nM
- GI50 (DU-145 prostate): > 100000 nM
- TGI (DU-145 prostate): > 100000 nM
- GI50 (EKVX NSCLC): 2500 nM
- TGI (EKVX NSCLC): > 100000 nM
- GI50 (HCT-116 colon): 1690 nM
- TGI (HCT-116 colon): > 100000 nM
- GI50 (HCT-15 colon): 3770 nM
- TGI (HCT-15 colon): > 89500 nM
- TGI (HL-60(TB) leukemia): 99.5 nM
- GI50 (HOP-62 NSCLC): 644 nM
- TGI (HOP-62 NSCLC): > 100000 nM
- GI50 (HOP-92 NSCLC): 61.9 nM
- GI50 (HS 578T breast): 154 nM
- TGI (HS 578T breast): > 100000 nM
- GI50 (HT29 colon): 950 nM
- TGI (HT29 colon): > 100000 nM
- GI50 (IGROV1 ovarian): 269 nM
- TGI (IGROV1 ovarian): > 100000 nM
- GI50 (K-562 leukemia): 565 nM
- TGI (K-562 leukemia): > 100000 nM
- GI50 (KM12 colon): 483 nM
- TGI (KM12 colon): > 100000 nM
- GI50 (LOX IMVI melanoma): 1480 nM
- TGI (LOX IMVI melanoma): > 42900 nM
- GI50 (M14 melanoma): 1010 nM
- TGI (M14 melanoma): > 100000 nM
- GI50 (MALME-3M melanoma): 788 nM
- TGI (MALME-3M melanoma): > 100000 nM
- GI50 (MCF7 breast): 39.7 nM
- TGI (MCF7 breast): > 100000 nM
- GI50 (MDA-MB-231 breast): 90.8 nM
- TGI (MDA-MB-231 breast): > 100000 nM
- GI50 (MDA-MB-435): 171 nM
- TGI (MDA-MB-435): > 100000 nM
- GI50 (MOLT-4 leukemia): 113 nM
- TGI (MOLT-4 leukemia): > 100000 nM
- GI50 (NCI-H226 lung): 476 nM
- TGI (NCI-H226 lung): > 100000 nM
- GI50 (NCI-H23 lung): 13100 nM
- TGI (NCI-H23 lung): > 100000 nM
- GI50 (NCI-H460 lung): 47400 nM
- TGI (NCI-H460 lung): > 100000 nM
- GI50 (NCI-H522 lung): 4370 nM
- TGI (NCI-H522 lung): > 100000 nM
- GI50 (NCI/ADR-RES ovarian): > 100000 nM
- TGI (NCI/ADR-RES ovarian): > 100000 nM
- GI50 (OVCAR-3 ovarian): 2300 nM
- TGI (OVCAR-3 ovarian): > 100000 nM
- GI50 (OVCAR-5 ovarian): 795 nM
- TGI (OVCAR-5 ovarian): > 100000 nM
- GI50 (OVCAR-8 ovarian): 298 nM
- TGI (OVCAR-8 ovarian): > 100000 nM
- GI50 (PC-3 prostate): 134 nM
- TGI (PC-3 prostate): > 100000 nM
- GI50 (RPMI-8226 leukemia): 38 nM
- TGI (RPMI-8226 leukemia): 1120 nM
- GI50 (RXF 393 renal): 2170 nM
- TGI (RXF 393 renal): > 100000 nM
- GI50 (SF-268 CNS): 629 nM
- TGI (SF-268 CNS): > 100000 nM
- GI50 (SF-295 CNS): 3110 nM
- TGI (SF-295 CNS): > 100000 nM
- GI50 (SF-539 CNS): 439 nM
- TGI (SF-539 CNS): > 100000 nM
- GI50 (SK-MEL-2 melanoma): 371 nM
- TGI (SK-MEL-2 melanoma): > 100000 nM
- GI50 (SK-MEL-28 melanoma): 901 nM
- TGI (SK-MEL-28 melanoma): > 100000 nM
- GI50 (SK-MEL-5 melanoma): 345 nM
- TGI (SK-MEL-5 melanoma): 3450 nM
- GI50 (SK-OV-3 ovarian): 3310 nM
- TGI (SK-OV-3 ovarian): > 100000 nM
- GI50 (SN12C renal): 293 nM
- TGI (SN12C renal): > 100000 nM
- GI50 (SNB-19 CNS): 438 nM
- TGI (SNB-19 CNS): > 100000 nM
- GI50 (SNB-75 CNS): < 18.9 nM
- TGI (SNB-75 CNS): 389 nM
- GI50 (SR leukemia): 64.5 nM
- TGI (SR leukemia): > 100000 nM
- GI50 (TK-10 renal): 1700 nM
- TGI (TK-10 renal): > 40900 nM
- GI50 (U251 CNS): 3090 nM
- TGI (U251 CNS): > 100000 nM
- GI50 (UACC-257 melanoma): > 26300 nM
- TGI (UACC-257 melanoma): > 100000 nM
- GI50 (UACC-62 melanoma): 429 nM
- TGI (UACC-62 melanoma): > 100000 nM
- GI50 (UO-31 renal): 3200 nM
- TGI (UO-31 renal): 53900 nM
